# Patent US9102675B2, “3-Cyanoaryl-1H-pyrrolo[2,3-B] pyridine derivatives” (MERCK PATENT GMBH, priority 2011, dated 2015)
# Like-named read-outs stand apart in the source and are kept apart here.
# Tested on: TBK1 + IKKε
# Assay: TBK1 + IKKε cell assay: dose response inhibition of phospho-IRF3 @ Ser 386 in MDA-MB-468 cells after poly(I:C) stimulation
# Format: cell-based
# Details: nuclear phospho-IRF3 Ser386, read-out: TBK1 + IKKε cell assay IC50
# Excerpt: Dose response inhibition of phospho-IRF3 @ Ser 386 cell/MDAMB468/INH/PHOS/IMAG/pIRF3
# Although TBK1 and IKKε are mainly known as key substances in the innate immune response, recent findings have indicated a role for TBK1 and IKKε in Ras-induced oncogenic transformation. TBK1 was identified as RaIB effector in the Ras-like (RaI)-guanine nucleotide exchange factor (GEF) pathway that is required for Ras-induced transformation. TBK1 directly activates IRF3 which, on phosphorylation, homodimerises and translocates to the nucleus, where it activates processes associated with inflammation, immune regulation, cell survival and proliferation.
# This assay has been developed in order to assess the efficacy/potency of TBK1/IKKε inhibitor compounds based on the immunocytochemical detection of nucleus-localised phospho-IRF3, a target directly downstream of TBK1. Treatment with polyinosine-polycytidylic acid (poly(I:C), a synthetic analogue of double-stranded RNA (dsRNA), a molecular pattern associated with viral infection and recognised by Toll-like receptor 3 (TLR3) is used to induce TBK1/IKKε activity and IRF3 phosphorylation at Ser386.
# Day 1: MDA-MB-468 cells are detached using HyQ-Tase, counted and sown into a 384-well plate with TC surface and clear bottom in a density of 10,000 cells per well in a total volume of 35 μl of complete medium. Alternatively, the cells are sown directly from frozen glass vials.
# Day 2: The cells are pre-treated with inhibitor compounds for 1 h prior to poly(I:C) stimulation. After incubation for 2 h with poly(I:C), the cells are fixed in (para)formaldehyde (PFA) and permeabilised using methanol (MeOH). The cells are then blocked and incubated with an anti-pIRF3 antibody at 4° C. overnight.
# Day 3: The primary antibody is washed off, an AlexaFluor488-conjugated secondary antibody is added, the cells are contrast-stained with propidium iodide, followed by image acquisition on an IMX ultra-high content reader.
# Plating medium=culture medium: • RPMI 1640, Invitrogen #31870 • 10% of FCS, Invitrogen #10270-106 • 2 mM Glutamax, Invitrogen #35050-038 • 1 mM sodium pyruvate, Invitrogen #11360 • 1% of Pen/Strep • 37° C., 5% of CO2
# Plates: 384-well bottom cell culture plates with black/clear bottom, Falcon #35 3962 or Greiner #781090
# Subcultivation: HyQ-Tase, Thermo Scientific (HyClone) # SV30030.01
# Poly(I:C) (LMW), Invitrogen # tlrl-picw (prepare 20 mg/ml stock solution in sterile PBS, denature 30 min 55° C. in a water bath, slowly cool to RT, store at −20° C. in aliquots)
# a 10-point dose-response curve with MSC2119074A-4=BX-795 is included in each experiment
# Formaldehyde (methanol-free, 16%, ultrapure EM grade), Polysciences #18814 (storage RT), final conc.: 4%
# Goat serum, PAA # B15-035 (storage 4° C., long term −20° C.), final conc.: 10%
# BSA (IgG- and protease-free, 30%), US-Biological # A1317 (storage 4° C., long term −20° C.), final conc.: 2%
# Tween 20 detergent, Calbiochem #655204 (storage RT), (prepare 10% stock solution in water; final conc.: 0.1%)
# Anti-pIRF-3 rabbit mAb, Epitomics #2526-B (storage −20° C.), final conc.: 1:2000 in PBS/2% of BSA
# Alexa Fluor goat-anti-rabbit-488, Invitrogen # A11034 or # A11008 (storage 4° C., dark), final conc.: 1:2000 in PBS/2% of BSA/0.1% of Tween
# Propidium iodide (PI), Fluka #81845, 1 mg/ml in H2O (storage 4° C., dark), final conc.: 0.2 μg/ml
# (1) Sow 10,000 cells/well/35μof complete RPMI +10% FCS into 384-well bottom cell culture plates with black / clear bottom,
# (2) Incubate for 2 h at room temperature on the bench, followed by further incubation for 22 h at 37° C., 5% of CO2 and 90% RH. […]
# [1] = Homo sapiens, MDA-MB-468, MDA-MB-468 cells
IC50 [1],IC50 (MDA-MB-468 cells),SMILES
3 to 50 µM,–,"N#Cc1cc(-c2c[nH]c3ncccc23)ccc1OC1CCOCC1 [Compound A1, 5-(1H-pyrrolo[2,3-b]pyridin-3-yl)-2-tetrahydropyran-4-yloxybenzonitrile]"
0.3 to 3 µM,–,"Cn1cc(-c2cnc3[nH]cc(-c4ccc(OC5CCOCC5)c(C#N)c4)c3c2)cn1 [Compound A4, 5-[5-(1-methylpyrazol-4-yl)-1H-pyrrolo[2,3-b]pyridin-3-yl]-2-tetrahydropyran-4-yloxybenzonitrile]"
0.3 to 3 µM,–,"N#Cc1cc(-c2c[nH]c3ncc(-c4cnn(CCN5CCOCC5)c4)cc23)ccc1OC1CCOCC1 [Compound A7, 5-[5-[1-(2-morpholinoethyl)pyrazol-4-yl]-1H-pyrrolo[2,3-b]pyridin-3-yl]-2-tetrahydropyran-4-yloxybenzonitrile]"
3 to 50 µM,–,"N#Cc1cc(-c2c[nH]c3ncc(-c4ccc(N5CCOCC5)cc4)cc23)ccc1OC1CCOCC1 [Compound A8, 5-[5-(4-morpholinophenyl)-1H-pyrrolo[2,3-b]pyridin-3-yl]-2-tetrahydropyran-4-yloxybenzonitrile]"
0.3 to 3 µM,–,"N#Cc1cc(-c2c[nH]c3ncc(-c4cnn(CCN5CCCC5)c4)cc23)ccc1OC1CCOCC1 [Compound A9, 5-[5-[1-(2-pyrrolidin-1-ylethyl)pyrazol-4-yl]-1H-pyrrolo[2,3-b]pyridin-3-yl]-2-tetrahydropyran-4-yloxybenzonitrile]"
< 0.3 µM,–,"COCCn1cc(-c2cnc3[nH]cc(-c4ccc(OC5CCOCC5)c(C#N)c4)c3c2)cn1 [Compound A10, 5-[5-[1-(2-methoxyethyl)pyrazol-4-yl]-1H-pyrrolo[2,3-b]pyridin-3-yl]-2-tetrahydropyran-4-yloxybenzonitrile]"
0.3 to 3 µM,–,"N#Cc1cc(-c2c[nH]c3ncc(-c4cnn(C5CCNCC5)c4)cc23)ccc1OC1CCOCC1 [Compound A12, 5-[5-(1-piperidin-4-yl-1H-pyrazol-4-yl)-1H-pyrrolo[2,3-b]pyridin-3-yl]-2-(tetrahydropyran-4-yloxy)benzonitrile]"
3 to 50 µM,–,"CN1CCC(Oc2ccc(-c3c[nH]c4ncc(-c5cnn(C)c5)cc34)cc2C#N)CC1 [Compound A13, 2-(1-methylpiperidin-4-yloxy)-5-[5-(1-methyl-1H-pyrazol-4-yl)-1H-pyrrolo[2,3-b]pyridin-3-yl]benzonitrile]"
< 0.3 µM,–,"N#Cc1cc(-c2c[nH]c3ncc(-c4cnn(CCO)c4)cc23)ccc1OC1CCOCC1 [Compound A15, 5-[5-[1-(2-hydroxyethyl)pyrazol-4-yl]-1H-pyrrolo[2,3-b]pyridin-3-yl]-2-tetrahydropyran-4-yloxybenzonitrile]"
< 0.3 µM,–,"CN1CCC(n2cc(-c3cnc4[nH]cc(-c5ccc(OC6CCOCC6)c(C#N)c5)c4c3)cn2)CC1 [Compound A16, 5-[5-[1-(1-methyl-4-piperidyl)pyrazol-4-yl]-1H-pyrrolo[2,3-b]pyridin-3-yl]-2-tetrahydropyran-4-yloxybenzonitrile]"
3 to 50 µM,–,"CN1CCN(c2cnc3[nH]cc(-c4ccc(OC5CCOCC5)c(C#N)c4)c3c2)CC1 [Compound A17, 5-[5-(4-methylpiperazin-1-yl)-1H-pyrrolo[2,3-b]pyridin-3-yl]-2-tetrahydropyran-4-yloxybenzonitrile]"
0.3 to 3 µM,–,"N#Cc1cc(-c2c[nH]c3ncc(-c4cnn(C5CCNCC5)c4)cc23)cnc1OC1CCOCC1 [Compound A18, 5-[5-[1-(4-piperidyl)pyrazol-4-yl]-1H-pyrrolo[2,3-b]pyridin-3-yl]-2-tetrahydropyran-4-yloxypyridine-3-carbonitrile]"
–,0.3 to 3 µM,"CN1CCC(n2cc(-c3cnc4[nH]cc(-c5ccc(OC6CCOCC6)c(C#N)c5)c4c3)cn2)CC1 [Compound A20, 5-[5-[1-(1-methyl-4-piperidyl)pyrazol-4-yl]-1H-pyrrolo[2,3-b]pyridin-3-yl]-2-tetrahydropyran-4-yloxybenzonitrile]"
0.3 to 3 µM,–,"N#Cc1cc(-c2c[nH]c3ncc(OCCN4CCOCC4)cc23)ccc1OC1CCOCC1 [Compound A21, 5-[5-(2-morpholinoethoxy)-1H-pyrrolo[2,3-b]pyridin-3-yl]-2-tetrahydropyran-4-yloxybenzonitrile]"
–,0.3 to 3 µM,"N#Cc1cc(-c2c[nH]c3ncc(-c4cn(C5CCNCC5)nn4)cc23)ccc1OC1CCOCC1 [Compound A22, 5-[5-[1-(4-piperidyl)triazol-4-yl]-1H-pyrrolo[2,3-b]pyridin-3-yl]-2-tetrahydropyran-4-yloxybenzonitrile]"
–,0.3 to 3 µM,"CN1CCC(n2cc(-c3cnc4[nH]cc(-c5ccc(OC6CCOCC6)c(C#N)c5)c4c3)nn2)CC1 [Compound A23, 5-[5-[1-(1-methyl-4-piperidyl)triazol-4-yl]-1H-pyrrolo[2,3-b]pyridin-3-yl]-2-tetrahydropyran-4-yloxybenzonitrile]"
0.3 to 3 µM,–,"CC1(COc2ccc(-c3c[nH]c4ncc(-c5cnn(C6CCNCC6)c5)cc34)cc2C#N)COC1 [Compound A24, 2-[(3-Methyloxetan-3-yl)methoxy]-5-[5-[1-(4-piperidyl)pyrazol-4-yl]-1H-pyrrolo[2,3-b]pyridin-3-yl]-benzonitrile]"
< 0.3 µM,–,"N#Cc1cc(-c2c[nH]c3ncc(-c4cnn(C5COC5)c4)cc23)ccc1OC1CCOCC1 [Compound A26, 5-[5-[1-(Oxetan-3-yl)pyrazol-4-yl]-1H-pyrrolo[2,3-b]-pyridin-3-yl]-2-tetrahydropyran-4-yloxybenzonitrile]"
0.3 to 3 µM,–,"N#Cc1cc(-c2c[nH]c3ncc(-c4cn(CCN5CCCC5)nn4)cc23)ccc1OC1CCOCC1 [Compound A27, 5-[5-[1-(2-Pyrrolidin-1-ylethyl)triazol-4-yl]-1H-pyrrolo-[2,3-b]pyridin-3-yl]-2-tetrahydropyran-4-yloxybenzo-nitrile]"
0.3 to 3 µM,–,"Cn1cc(-c2cnc3[nH]cc(-c4cnc(OC5CCOCC5)c(C#N)c4)c3c2)cn1 [Compound A30, 5-[5-(1-Methylpyrazol-4-yl)-1H-pyrrolo[2,3-b]pyridin-3-yl]-2-tetrahydropyran-4-yloxypyridine-3-carbonitrile]"
3 to 50 µM,–,"Cn1cc(-c2cnc3[nH]cc(-c4ccc(OC5COC5)c(C#N)c4)c3c2)cn1 [Compound A31, 5-[5-(1-methyl-1H-pyrazol-4-yl)-1H-pyrrolo[2,3-b]pyridin-3-yl]-2-(oxetan-3-yloxy)benzonitrile]"
0.3 to 3 µM,–,"Cn1cc(-c2cnc3[nH]cc(-c4ccc(OCC5(C)COC5)c(C#N)c4)c3c2)cn1 [Compound A32, 2-(3-methyloxetan-3-ylmethoxy)-5-[5-(1-methyl-1H-pyrazol-4-yl)-1H-pyrrolo[2,3-b]pyridin-3-yl]benzonitrile]"
0.3 to 3 µM,–,"N#Cc1cc(-c2c[nH]c3ncc(-c4cnn(CCN5CCCC5)c4)cc23)cnc1OC1CCOCC1 [Compound A33, 5-{5-[1-(2-Pyrrolidin-1-ylethyl)-1H-pyrazol-4-yl]-1H-pyrrolo[2,3-b]pyridin-3-yl}-2-(tetrahydropyran-4-yl-oxy)nicotinonitrile]"
3 to 50 µM,–,"N#Cc1cc(-c2c[nH]c3ncc(-c4cnn(C5COC5)c4)cc23)ccc1OC1COC1 [Compound A34, 2-(oxetan-3-yloxy)-5-[5-(1-oxetan-3-yl-1H-pyrazol-4-yl)-1H-pyrrolo-[2,3-b]pyridin-3-yl]benzonitrile]"
0.3 to 3 µM,–,"CC1(COc2ccc(-c3c[nH]c4ncc(-c5cnn(C6COC6)c5)cc34)cc2C#N)COC1 [Compound A35, 2-(3-methyloxetan-3-ylmethoxy)-5-[5-(1-oxetan-3-yl-1H-pyrazol-4-yl)-1H-pyrrolo[2,3-b]-pyridin-3-yl]benzonitrile]"
